In this series the test system is neonatal human fibroblast cells. Nature of the series: Caspase detection in neonatal human fibroblast cells in FM, fluorescence spectroscopy. In kind it is cell-based. Conditions: fibroblasts in FM. From the text: The procedure for caspase detection in neonatal human fibroblast cells in fibroblast growth medium FM* treated with BAC-3 using fluorescence spectroscopy.
Note: CaspaTag Fluorescein Caspase Activity Kit (Intergen Company) was used to detect active caspase enzymes with fluorescent spectroscopy. All solutions, except cell medium and PBS, were included with the kit.
12 vials of neonatal human fibroblasts, NHF97-001 passage #3 (prepared as described in section 2.1.a), were retrieved from a liquid N2 chamber. Closed vials were quickly defrosted in a small amount of 37° C., 75% ethanol. […]
Di-rhamnolipid BAC-3 was weighed on the precision balance (Mettler AC100) and dissolved in FM medium to make an aqueous 1 mg/ml di-rhamnolipid BAC-3 stock solution. […] The remaining 9 plates were used as controls: 3 plates for positive apoptosis control (apoptosis induction by UVB+antibody), 3 plates for BAC-3 untreated control and 3 plates for fluorescence control (FAM-VAD-FMK unlabelled cells). […]
On day 6, treatment with BAC-3 was completed and cells were trypsinized and collected into 50 ml centrifuge tubes. Cells were counted using a hemacytometer and a trypan blue exclusion test and densities were adjusted to 1.0×10^6 cells per ml of FM medium. […]

Each structure is given as a SMILES string.

As to `CCCCCCCC(CC(=O)O)OC(=O)CC(CCCCCCC)OC1OC(C)C(O)C(O)C1OC1OC(C)C(O)C(O)C1O` [BAC-3, (α-L-rhamnopyranosyl-(1,2)-α-L-rhamnopyranosyl)-3-hyroxydecanoyl-3-hydroxydecanoic acid], the “optimal concentration for inducing apoptosis (caspase activity peak)” value (6 days, tested 100, 50, 10 and 1 μg/ml) was determined as 50 µg/mL. Further, the “mechanism of cell death at higher concentrations” value (higher concentrations of BAC-3 (detergent effect)) was “cell necrosis”.

The record behind these values is patent publication US7129218B2, “Use of rhamnolipids in wound healing, treatment and prevention of gum disease and periodontal regeneration” (Paradigm Biomedical, Inc., priority 1999, dated 2006).
